The source of these data is patent US20250275964A1, “METHODS OF INHIBITING LIVER-TYPE GLUTAMINASE, GLS2” (CORNELL UNIVERSITY, priority 2019, published 2025).

SMILES strings stand for the structures. Where only a bound is given, the exact number is not on record here.

The subject of assay [1] is breast cancer cell lines. Conditions: previously reported (Huang et al. 2018); cited from earlier work.
The test system of assay [2] is T-47D cells. Put plainly: 6-day cell proliferation assay, T-47D. It is filed as cell-based, human. Conditions: Homo sapiens, T47D, 144 h, proliferation over 6 days. The protocol:
(§1) Human breast cancer cell lines MCF7, BT-474, T-47D, MDA-MB-453, MDA-MB-231, Hs 578T, HCC38, SK-BR-3, and DU4475 were purchased from the American Type Culture Collection (ATCC) and no additional cell authentication was performed. The TSE human breast cancer cell line was supplied by Dr. Steven Abcouwer (University of Michigan). All breast cancer cells were cultured at 37° C. under a 5% CO2 atmosphere in RPMI 1640 medium containing 2 mM glutamine (Gibco) and supplemented with 10% fetal bovine serum (FBS) (Gibco). The 293T cell line (ATCC) used for generating lentivirus particles was cultured as above but using DMEM, high glucose (Gibco).
(§2) Culture medium was added to 12-well plates (1 ml/well) and wells were seeded with cells at Day 0 as follows. MCF7, T-47D, BT-474, HCC38 cells: […] cells/well. MDA-MB-453 and MDA-MB-231 cells: 1×10^4 cells/well. TSE and Hs 578T cells: 0.3×10^4 cells/well. After 16 hours, culture medium was replaced with fresh medium supplemented with appropriate concentrations of inhibitors and was subsequently replaced every 48 hours. On Day 6 cells were trypsinized and suspended in an appropriate volume of culture medium, and the total number of cells per well was determined using a hemocytometer or a TC20 Automated Cell Counter (Bio-Rad).

For assay [3], the system named is MCF7 cells. Put plainly: 6-day cell proliferation assay, MCF7. It is filed as cell-based, human. Conditions: Homo sapiens, 144 h; MCF7, proliferation over 6 days. The procedure: as §1, §2
Assay [4] relates to HCC38 cells. Put plainly: 6-day cell proliferation assay, HCC38. It is filed as cell-based, human. Particulars: Homo sapiens, 144 h; HCC38, proliferation over 6 days. The procedure: as §1, §2
For assay [5], the system named is MDA-MB-231 cells. Put plainly: 6-day cell proliferation assay, MDA-MB-231. It is filed as cell-based, human. Conditions: Homo sapiens, 144 h; MDA-MB-231, proliferation over 6 days. The protocol:
as §1, §2

Assay [6] deals with Hs 578T cells. Put plainly: 6-day cell proliferation assay, Hs 578T. Particulars: Homo sapiens, 144 h, proliferation over 6 days. It is filed as cell-based, human. The protocol:
as §1, §2

In assay [7] the test system is BT-474 cells. Put plainly: 6-day cell proliferation assay, BT-474. It is filed as cell-based, human. Conditions: Homo sapiens, 144 h; BT-474, proliferation over 6 days. The protocol:
as §1, §2

In assay [8] the test system is TSE cells. Put plainly: 6-day cell proliferation assay, TSE. It is filed as cell-based, human. Conditions: Homo sapiens, 144 h; TSE, proliferation over 6 days. The procedure: as §1, §2
The test system of assay [9] is MDA-MB-453 cells. Put plainly: 6-day cell proliferation assay, MDA-MB-453. It is filed as cell-based, human. Conditions: Homo sapiens, 144 h; MDA-MB-453, proliferation over 6 days. The protocol: as §1, §2
Assay [10] addresses T1, recombinant full-length human GLS2 (Homo sapiens, UniProt Q9UI32).
T1 construct: GLS2 (residues 38 to 602) in E. coli; inferred from pQE80 vector and Ni-NTA/imidazole purification; made in house; host or cells: E. coli BL21(DE3)
T1 sequence (Q9UI32 38-602): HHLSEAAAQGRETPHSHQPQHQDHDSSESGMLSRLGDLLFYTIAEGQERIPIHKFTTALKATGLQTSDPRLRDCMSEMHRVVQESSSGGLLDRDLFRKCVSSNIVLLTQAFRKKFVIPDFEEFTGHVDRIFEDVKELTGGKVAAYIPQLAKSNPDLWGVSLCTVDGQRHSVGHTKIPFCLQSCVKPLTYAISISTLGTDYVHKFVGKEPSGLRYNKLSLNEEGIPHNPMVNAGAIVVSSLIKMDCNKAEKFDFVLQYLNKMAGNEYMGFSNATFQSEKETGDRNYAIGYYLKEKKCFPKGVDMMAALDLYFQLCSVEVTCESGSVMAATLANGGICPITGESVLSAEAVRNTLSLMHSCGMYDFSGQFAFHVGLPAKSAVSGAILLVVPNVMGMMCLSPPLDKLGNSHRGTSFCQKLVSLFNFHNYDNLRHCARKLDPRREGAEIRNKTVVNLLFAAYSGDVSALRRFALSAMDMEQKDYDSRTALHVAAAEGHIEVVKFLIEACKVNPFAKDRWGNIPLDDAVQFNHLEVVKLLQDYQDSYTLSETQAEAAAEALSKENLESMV
Put plainly: Real-time recombinant glutaminase activity assay, GLS2. It is filed as biochemical. Conditions: different concentrations. The protocol:
Real-time monitoring of glutaminase activity through NADH production was performed on a Cary Eclipse fluorescence spectrometer. The excitation and emission wavelengths were set at 340 nm and 460 nm, respectively. To a 1 ml cuvette, 900 μl of assay buffer was added, followed by 10 μl of GDH, 40 μl of 50 mM NAD and 20 μl of either DMSO or various dilutions of 968. Then, 100 μl of either 100 nM GAC or 500 nM GLS2 was added to this mixture and the fluorescence emission was monitored in real time. After 30 s, 200 μl of a mixture of glutamine and K2HPO4 was added such that the final concentrations of K2HPO4 and glutamine were 100 mM and 20 mM, respectively. The initial velocity of glutamine hydrolysis was obtained from the slopes of the linear portion of the kinetic curve.
Recombinant GAC and GLS2 were expressed in E. coli as described in Huang et al., “Characterization of the Interactions of Potent Allosteric Inhibitors with Glutaminase C, a Key Enzyme in Cancer Cell Glutamine Metabolism,” J. Biol. Chem. 293:3535-3545 (2018), which is hereby incorporated by reference in its entirety. Briefly, E. coli strain BL21(DE3) (Thermo Fisher Scientific) were transformed with vector pQE80-GAC-72-598 or with pQE80-GLS2-38-602 to express the processed forms of GAC and GLS2, respectively. For both constructs, expression was induced with 0.3 mM IPTG for 20 hours at 18° C., and cells were then harvested by centrifugation and lysed by sonication in binding buffer (500 mM NaCl, 50 mM Tris-HCl pH 8.5, 10 mM imidazole, 5 mM β-mercaptoethanol, 1 mM benzamidine chloride). The lysate was centrifuged, and the supernatant applied to a Ni-NTA column which was then washed with 100 column volumes of binding buffer followed by 10 volumes of wash buffer (500 mM NaCl, 50 mM Tris-HCl pH 8.5, 40 mM imidazole, 5 mM β-mercaptoethanol, 1 mM benzamidine chloride). Protein was eluted with 5 column volumes of elution buffer (500 mM NaCl, 300 mM imidazole-HCl pH 7.5, 5 mM β-mercaptoethanol, 1 mM benzamidine chloride). The eluate was centrifugally concentrated and then further purified by FPLC using a HiLoad 16/600 Superdex 200 column (GE Healthcare) with 150 mM NaCl, 5 mM Tris-HCl pH 7.5.

In assay [11] the test system is GLS2 protein levels in TSE cells. Put plainly: Western blot of GLS2 in TSE cells treated with hypomethylating agent. Particulars: 48 hours. It is filed as cell-based, human. (In general: Immunoblotting shows a protein as a band on a membrane.)
Method: Cells, or fractionated mitochondria and nuclei, were lysed with ice-cold lysis buffer (50 mM HEPES pH 8.0, 150 mM NaCl, 25 mM NaF, 1% (v/v) Triton X-100, 1 mM MgCl2, 50 mM β-glycerophosphate, 30 μg/ml leupeptin, 5 μg/ml aprotinin), and insoluble debris cleared by centrifugation at 4° C. Protein concentrations were determined by Bradford assay (Bio-Rad), and lysate was then boiled for 10 min in reducing SDS-sample buffer. Lysate proteins (20 μg total protein/lane, except for the cell fractionation experiment in which 5 μg total protein/lane was used) were then resolved on Novex 12% Tris-Glycine Mini Gels (Thermo Fisher Scientific) and transferred to PVDF membrane (PerkinElmer). Membranes were blocked in 7% BSA in Tris-Buffered Saline plus 0.05% TWEEN 20 (TBST) for 1 hour at room temperature and probed overnight at 4° C. in primary antibody solution in TBST (see Table 3 for antibody dilutions). They were then washed with TBST and incubated in TBST containing 25% (v/v) non-fat dry milk powder and anti-Rabbit or anti-Mouse secondary antibody (1:2500) for 1 hour. Finally, membranes were washed in TBST, and imaged using Western Lightning Plus-ECL (PerkinElmer) and HyBlot ES autoradiography film (Denville Scientific Inc.).

Turning to `O=C(Cc1ccccc1)Nc1nnc(NC2CCN(c3nnc(NC(=O)Cc4ccccc4)s3)CC2)s1` [UPGL00004], the “selectivity profile, basal- versus luminal-subtype cells” value in assay [1] was “same selectivity profile”.

By EC50 is commonly meant the concentration needed to bring the measured effect to its halfway point. Take `O=C(Cc1cccc(OC(F)(F)F)c1)Nc1ccc(CCCCc2nnc(NC(=O)Cc3ccccn3)s2)nn1` [CB-839]: the EC50 in [2] is above 1000 nM; in assay [3], above 1000 nM; in assay [4], 49 nM; in assay [5] it was 19 nM; in assay [6], 31 nM; in assay [7], above 1000 nM. Also, the results for the EC50 in [8] and in assay [9] were 41 nM and above 1000 nM, respectively. Moreover, the “inhibition of recombinant GLS2 activity” value in assay [10] is “resistance”.

For the compound `Nc1ncn([C@@H]2O[C@H](CO)[C@@H](O)[C@H]2O)c(=O)n1` [azacitidine], in assay [11], the GLS2 protein levels result was “increased”.
